# Results published in patent US20060069132A1, “Azolecarboxamide herbicides” (priority 2004, published 2006).
# Assays:
# velvetleaf [1] = test: Test A pre-/postemergence herbicide test; assay type: in vivo, Abutilon theophrasti
# Method in brief: (§1)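 Greenhouse injury scoring (0–100, complete control = 100) at approximately ten days follows simultaneous pre- and postemergence application. Soil received a directed spray after seeding; seedlings of 2–10 cm at the one- to two-leaf stage were sprayed to runoff.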
# velvetleaf [2] = test: Test B pre-/postemergence herbicide test; assay type: in vivo, Abutilon theophrasti; settings: for Plant response rating, Velvetleaf: preemergence; for Velvetleaf plant response rating: postemergence, visual rating, scale 0 (no effect) to 100 (complete control)
# Method in brief: (§2)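 Herbicidal effect was judged by eye on a 0–100 scale after plants stood 13 to 15 days in the greenhouse following pre- or postemergence treatment with surfactant-containing formulations.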
# [3] = system: small flower umbrella sedge; test: Test B flooded paddy test; assay type: in vivo, Cyperus difformis; settings: 1000 g ai/ha, visual rating, scale 0 to 100 (0 no effect, 100 complete control), 13 to 15 days
# Method in brief: (§3)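 Scale 0–100: zero equals no visible effect, 100 complete control, judged by eye relative to controls. Timing: 13 to 15 days in greenhouse post-treatment. Growth stage at spraying: two leaves (paddy) or one to four leaves, 2–18 cm (postemergence).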
# pigweed = test: Test B pre-/postemergence herbicide test; assay type: in vivo, Amaranthus retroflexus; settings: for Plant response rating, Pigweed: preemergence; for Pigweed plant response rating: postemergence, visual rating, scale 0 (no effect) to 100 (complete control)
# Method in brief: as §2
# wild oat = test: Test B postemergence herbicide test; assay type: in vivo, Avena fatua; settings: postemergence, visual rating, scale 0 (no effect) to 100 (complete control)
# Method in brief: (§4)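 Postemergence plants were sprayed with formulated test chemicals at 2 to 18 cm height (1- to 4-leaf stage); paddy species were grown to the 2-leaf stage. After 13 to 15 days in a greenhouse, injury was rated visually against untreated controls on a 0–100 scale (0 = no effect, 100 = complete control).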
# barnyardgrass [4] = test: Test A pre-/postemergence herbicide test; assay type: in vivo, Echinochloa crus-galli
# Method in brief: as §1
# redroot pigweed = test: Test A pre-/postemergence herbicide test; assay type: in vivo, Amaranthus retroflexus
# Method in brief: as §1
# large crabgrass [5] = test: Test A pre-/postemergence herbicide test; assay type: in vivo, Digitaria sanguinalis
# Method in brief: as §1
# cocklebur = test: Test B pre-/postemergence herbicide test; assay type: in vivo, Xanthium strumarium; settings: for Plant response rating, Cocklebur: preemergence; for Cocklebur plant response rating: postemergence, visual rating, scale 0 (no effect) to 100 (complete control)
# Method in brief: (§5)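 Formulation: non-phytotoxic solvent mix with surfactant. Timing: preemergence on seed and postemergence on 2–18 cm plants, applied concurrently. Readout after 13–15 d greenhouse: visual 0–100 control rating against controls.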
# giant foxtail [6] = test: Test A pre-/postemergence herbicide test; assay type: in vivo, Setaria faberi
# Method in brief: as §1
# morningglory [7] = test: Test A pre-/postemergence herbicide test; assay type: in vivo, Ipomoea spp.
# Method in brief: as §1
# large crabgrass [8] = test: Test B pre-/postemergence herbicide test; assay type: in vivo, Digitaria sanguinalis; settings: for Plant response rating, Crabgrass, Large: preemergence; for Crabgrass, Large plant response rating: postemergence, visual rating, scale 0 (no effect) to 100 (complete control)
# Method in brief: as §2
# ducksalad = test: Test B flooded paddy test; assay type: in vivo, Heteranthera limosa; settings: 1000 g ai/ha, visual rating, scale 0 to 100 (0 no effect, 100 complete control), 13 to 15 days
# Method in brief: as §3
# wheat = test: Test B postemergence herbicide test; assay type: in vivo, Triticum aestivum; set-up: key to Wheat plant response rating: 0 = no effect, 100 = complete control; settings: postemergence, 500 g ai/ha; visual rating, scale 0 (no effect) to 100 (complete control)
# Method in brief: as §4
# barnyardgrass [9] = test: Test B flooded paddy test; assay type: in vivo, Echinochloa crus-galli; settings: 1000 g ai/ha, visual rating, scale 0 to 100 (0 no effect, 100 complete control), 13 to 15 days
# Method in brief: as §3
# barnyardgrass [10] = test: Test B pre-/postemergence herbicide test; assay type: in vivo, Echinochloa crus-galli; settings: for Plant response rating, Barnyardgrass: preemergence; for Barnyardgrass plant response rating: postemergence, visual rating, scale 0 (no effect) to 100 (complete control)
# Method in brief: as §5
# blackgrass = test: Test B postemergence herbicide test; assay type: in vivo, Alopecurus myosuroides; settings: postemergence, visual rating, scale 0 (no effect) to 100 (complete control)
# Method in brief: as §3
# Surinam grass = test: Test B pre-/postemergence herbicide test; assay type: in vivo, Urochloa decumbens; settings: for Plant response rating, Surinam Grass: preemergence; for Surinam Grass plant response rating: postemergence, visual rating, scale 0 (no effect) to 100 (complete control)
# Method in brief: as §2
# lambsquarters = test: Test B pre-/postemergence herbicide test; assay type: in vivo, Chenopodium album; settings: for Plant response rating, Lambsquarters: preemergence; for Lambsquarters plant response rating: postemergence, visual rating, scale 0 (no effect) to 100 (complete control)
# Method in brief: as §2
# corn = test: Test B pre-/postemergence herbicide test; assay type: in vivo, Zea mays; settings: for Plant response rating, Corn: preemergence; for Corn plant response rating: postemergence, visual rating, scale 0 (no effect) to 100 (complete control)
# Method in brief: as §2
# rice = test: Test B flooded paddy test; assay type: in vivo, Oryza sativa; settings: 1000 g ai/ha, visual rating, scale 0 to 100 (0 no effect, 100 complete control), 13 to 15 days
# Method in brief: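 Treated at 2-leaf (paddy) or 1–4-leaf, 2–18 cm (postemergence); greenhouse 13–15 d; visual score vs control, 0 none to 100 complete control; dash = not tested.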
# morningglory [11] = test: Test B pre-/postemergence herbicide test; assay type: in vivo, Ipomoea coccinea; settings: for Plant response rating, Morningglory: preemergence; for Morningglory plant response rating: postemergence, visual rating, scale 0 (no effect) to 100 (complete control)
# Method in brief: as §5
# giant foxtail [12] = test: Test B pre-/postemergence herbicide test; assay type: in vivo, Setaria faberi; settings: for Plant response rating, Foxtail, Giant: preemergence; for Foxtail, Giant plant response rating: postemergence, visual rating, scale 0 (no effect) to 100 (complete control)
# Method in brief: as §2
# [13] = Postemergence, 500 g ai/ha, 0 to 100 scale, 0 no effect, 100 complete control
# [14] = Postemergence, 2000 g ai/ha, 0 to 100 scale, 0 no effect, 100 complete control
# [15] = Preemergence, 2000 g ai/ha, visual rating, 0 to 100 scale (0 no effect, 100 complete control)
# [16] = preemergence, 500 g ai/ha, visual injury, 0 to 100 scale (0 no effect, 100 complete control)
# [17] = 500 g ai/ha, visual rating 0-100, 0 no effect, 100 complete control
# [18] = 125 g ai/ha, 0 to 100 scale, 0 is no effect, 100 is complete control
# [19] = Preemergence, 500 g ai/ha, visual rating, 0 to 100 scale (0 no effect, 100 complete control)
compound,measurement,setting,value
CC(=NO)c1ccnc(NC(=O)c2cc(C(C)(C)C)nn2C)n1 [Compound 164],Velvetleaf plant response rating,velvetleaf [1]; [13],5
same,"Plant response rating, Velvetleaf",velvetleaf [1]; [14],0
same,Velvetleaf plant response rating,velvetleaf [1]; [15],0
same,Velvetleaf plant response rating,velvetleaf [1]; [16],0
same,"Plant response rating, Velvetleaf",velvetleaf [2]; [17],0
same,Velvetleaf plant response rating,velvetleaf [2]; 125 g ai/ha,0
same,Velvetleaf plant response rating,velvetleaf [2]; 500 g ai/ha,0
same,"Plant response rating, Velvetleaf",velvetleaf [2]; [18],0
same,"Sedge, Umbrella plant response rating",[3],0
same,"Plant response rating, Pigweed",pigweed; [17],0
same,Pigweed plant response rating,pigweed; 125 g ai/ha,0
same,Pigweed plant response rating,pigweed; 500 g ai/ha,0
same,"Plant response rating, Pigweed",pigweed; [18],0
same,"Oat, Wild plant response rating",wild oat; 125 g ai/ha,0
same,"Oat, Wild plant response rating",wild oat; 500 g ai/ha,0
same,Barnyardgrass plant response rating,barnyardgrass [4]; [13],10
same,"Plant response rating, Barnyardgrass",barnyardgrass [4]; [14],10
same,Barnyardgrass plant response rating,barnyardgrass [4]; [19],0
same,Barnyardgrass plant response rating,barnyardgrass [4]; [15],0
same,Pigweed plant response rating,redroot pigweed; [13],0
same,"Plant response rating, Pigweed",redroot pigweed; [14],0
same,Pigweed plant response rating,redroot pigweed; [15],0
same,Pigweed plant response rating,redroot pigweed; [16],0
same,"Crabgrass, Large plant response rating",large crabgrass [5]; [13],10
same,"Plant response rating, Crabgrass, Large",large crabgrass [5]; [14],10
same,"Crabgrass, Large plant response rating",large crabgrass [5]; [19],0
same,"Crabgrass, Large plant response rating",large crabgrass [5]; [15],0
same,"Plant response rating, Cocklebur",cocklebur; [17],0
same,Cocklebur plant response rating,cocklebur; 125 g ai/ha,0
same,Cocklebur plant response rating,cocklebur; 500 g ai/ha,0
same,"Plant response rating, Cocklebur",cocklebur; [18],0
same,"Foxtail, Giant plant response rating",giant foxtail [6]; [13],0
same,"Plant response rating, Foxtail, Giant",giant foxtail [6]; [14],0
same,"Foxtail, Giant plant response rating",giant foxtail [6]; [19],0
same,"Foxtail, Giant plant response rating",giant foxtail [6]; [15],0
same,Morningglory plant response rating,morningglory [7]; [13],10
same,"Plant response rating, Morningglory",morningglory [7]; [14],5
same,Morningglory plant response rating,morningglory [7]; [19],0
same,Morningglory plant response rating,morningglory [7]; [15],0
same,"Plant response rating, Crabgrass, Large",large crabgrass [8]; [17],0
same,"Crabgrass, Large plant response rating",large crabgrass [8]; 125 g ai/ha,0
same,"Crabgrass, Large plant response rating",large crabgrass [8]; 500 g ai/ha,0
same,"Plant response rating, Crabgrass, Large",large crabgrass [8]; [18],0
same,Ducksalad plant response rating,ducksalad,0
same,Wheat plant response rating,wheat,0
same,Barnyardgrass plant response rating,barnyardgrass [9],0
same,"Plant response rating, Barnyardgrass",barnyardgrass [10]; [17],0
same,Barnyardgrass plant response rating,barnyardgrass [10]; 125 g ai/ha,0
same,Barnyardgrass plant response rating,barnyardgrass [10]; 500 g ai/ha,0
same,"Plant response rating, Barnyardgrass",barnyardgrass [10]; [18],0
same,Blackgrass plant response rating,blackgrass; 125 g ai/ha,0
same,Blackgrass plant response rating,blackgrass; 500 g ai/ha,0
same,"Plant response rating, Surinam Grass",Surinam grass; [17],0
same,Surinam Grass plant response rating,Surinam grass; 125 g ai/ha,0
same,Surinam Grass plant response rating,Surinam grass; 500 g ai/ha,10
same,"Plant response rating, Surinam Grass",Surinam grass; [18],0
same,"Plant response rating, Lambsquarters",lambsquarters; [17],0
same,Lambsquarters plant response rating,lambsquarters; 125 g ai/ha,0
same,Lambsquarters plant response rating,lambsquarters; 500 g ai/ha,10
same,"Plant response rating, Lambsquarters",lambsquarters; [18],0
same,"Plant response rating, Corn",corn; [17],0
same,Corn plant response rating,corn; 125 g ai/ha,0
same,Corn plant response rating,corn; 500 g ai/ha,10
same,"Plant response rating, Corn",corn; [18],0
same,Rice plant response rating,rice,0
same,"Plant response rating, Morningglory",morningglory [11]; [17],0
same,Morningglory plant response rating,morningglory [11]; 125 g ai/ha,0
same,Morningglory plant response rating,morningglory [11]; 500 g ai/ha,0
same,"Plant response rating, Morningglory",morningglory [11]; [18],0
same,"Plant response rating, Foxtail, Giant",giant foxtail [12]; [17],0
same,"Foxtail, Giant plant response rating",giant foxtail [12]; 125 g ai/ha,0
same,"Foxtail, Giant plant response rating",giant foxtail [12]; 500 g ai/ha,0
same,"Plant response rating, Foxtail, Giant",giant foxtail [12]; [18],0
